The values below are quoted from earlier work in US11278622B2, “Ceftolozane antibiotic compositions” (Merck Sharp & Dohme Corp., priority 2013, dated 2022).

For the data set, the system named is P. aeruginosa.

Turning to `Cn1c(N)c(NC(=O)NCCN)c[n+]1CC1=C(C(=O)O)N2C(=O)[C@@H](NC(=O)/C(=N\OC(C)(C)C(=O)O)c3nsc(N)n3)[C@H]2SC1` [ceftolozane, (6R,7R)-3-[(5-amino-4-{[(2-aminoethyl)carbamoyl]amino}-1-methyl-1H-pyrazol-2-ium-2-yl)methyl]-7-({(2Z)-2-(5-amino-1,2,4-thiadiazol-3-yl)-2-[(1-carboxy-1-methylethoxy)imino]acetyl}amino)-8-oxo-5-thia-1-azabicyclo[4.2.0]oct-2-ene-2-carboxylate], the MIC90 is ≤ 2 µg/mL.

Broadly, the MIC90 is the lowest concentration that inhibits either 90% of growth or 90% of the strains tested, depending on the study.
